The values that follow are results of earlier work, collected in patent US12458645B2, “Pediatric powder for oral suspension containing antiviral agent and method for the preparation thereof” (PHARMATHEN S.A., priority 2014, dated 2025).

Where a name gives a salt, the structure may show the parent alone.

The conditions of series [1]: in words.
For series [2] the following is noted: in words. This is another data set of the same source.

Take `CC(C)[C@H](N)C(=O)OCCOCn1cnc2c(=O)[nH]c(N)nc21` [Valaciclovir hydrochloride, L-valine, 2-[(2-amino-1,6-dihydro-6-oxo-9H-purin-9-yl)methoxy] ethyl ester, mono hydrochloride]: in series [1], the solubility in dichloromethane entry is recorded as “insoluble in dichloromethane” and the solubility in water result was “soluble in water”. Consider `Nc1nc2c(ncn2COCCO)c(=O)[nH]1` [acyclovir, Acyclovir], for which the oral bioavailability entry in series [2] is given as “poor oral bioavailability”.
